“And” between values parts separate entries of the source, which are not always exact repeats. Equal values may be shown once. Read-outs that look alike come from different tables or passages of the source.
Key:
HCT116 cells = experiment: HCT116 Cell Titer Glow assay (CTG); conditions: for viability at 1000 µM: read-out: CTG % cell viability 1000 uM HCT116.20, HCT116 cells, 72 hours, 1000 uM; for viability at 1000 µM / CTG % cell viability 1000 uM HCT116.20: percent cells remaining after treatment; for IC50: read-out: CTG IC50 (nM) Cell Line: HCT116.20
IPC298 cells = experiment: IPC298 Cell Titer Glow assay (CTG); conditions: for viability at 100 µM: read-out: CTG % cell viability 100 uM IPC298.2, IPC298 cells, 72 hours, 100 uM; for IC50: read-out: CTG IC50 (nM) Cell Line: IPC298.2
[1] = Homo sapiens, IPC-298, 72 h, percent cells remaining after treatment

SMILES	IC50 (HCT116 cells; Homo sapiens, HCT-116, 72 h) [nM]	viability at 1000 µM (HCT116 cells; Homo sapiens, HCT-116, 72 h) [%]	IC50 (IPC298 cells; Homo sapiens, IPC-298, 72 h) [nM]	also measured
CNS(=O)(=O)Nc1nccc(Cc2cncc(OC3CCC(C)CC3)c2C)c1F (single isomer, unassigned) [Example 74, 3-fluoro-4-[[4-methyl-5-(4-methylcyclohexoxy)-3-pyridyl]methyl]-N-(methylsulfamoyl)pyridin-2-amine]	> 1000	92.9	> 1000	viability at 100 µM (IPC298 cells; [1]): 88.6%
CNS(=O)(=O)N1CCc2c(Cc3cncc(Nc4ccc(Cl)cc4F)c3C)ccnc21 [Example 43, 4-({5-[(4-chloro-2-fluorophenyl)amino]-4-methylpyridin-3-yl}methyl)-N-methyl-2H,3H-pyrrolo[2,3-b]pyridine-1-sulfonamide]	10 to 100	–	< 10	–
CNS(=O)(=O)Nc1nccc(Cc2cncc(Nc3ccc(Cl)cc3F)c2C)c1OC [Example 45, 4-[[5-(4-chloro-2-fluoro-anilino)-4-methyl-3-pyridyl]methyl]-3-methoxy-N-(methylsulfamoyl)pyridin-2-amine]	10 to 100	–	–	–
CNS(=O)(=O)Nc1ccc(Cc2cncc(Oc3ncc(Cl)cc3F)c2C)cn1 [Example 46, 5-[[5-[(5-chloro-3-fluoro-2-pyridyl)oxy]-4-methyl-3-pyridyl]methyl]-N-(methylsulfamoyl)pyridin-2-amine]	> 1000	–	> 1000	CTG % cell viability 1000 uM HCT116.20 (HCT116 cells; HCT116 cells, 72 hours): 82.81, % and 79.54%; CTG % cell viability 1000 uM IPC298.2 (IPC298 cells; IPC298 cells, 72 hours, 1000 uM, percent cells remaining after treatment): 19.34%
CNS(=O)(=O)Nc1nccc(Cc2cncc(Nc3ccc(C4CC4)cc3F)c2C)c1F [Example 47, 4-[[5-(4-cyclopropyl-2-fluoro-anilino)-4-methyl-3-pyridyl]methyl]-3-fluoro-N-(methylsulfamoyl)pyridin-2-amine]	< 10	–	< 10	–
CNS(=O)(=O)Nc1ccc(Cc2cncc(Oc3ncc(Cl)cc3F)c2C)cn1 [Example 48, 5-[[5-[(5-chloro-3-fluoro-2-pyridyl)oxy]-4-methyl-3-pyridyl]methyl]-N-(methylsulfamoyl)pyridin-2-amine]	–	–	–	CTG % cell viability 1000 uM HCT116.20 (HCT116 cells; HCT116 cells, 72 hours): 17.49%; IC50 (HCT116 cells; HCT116 cells, 72 hours): > 1000 nM; IC50 (IPC298 cells; IPC298 cells, 72 hours): > 1000 nM
CNS(=O)(=O)Nc1nccc(Cc2cncc(Cc3ccc(Cl)cc3F)c2C)c1F [Example 50, {[4-({5-[(4-chloro-2-fluorophenyl)methyl]-4-methylpyridin-3-yl}methyl)-3-fluoropyridin-2-yl]sulfamoyl}(methyl)amine]	500 to 1000	–	10 to 100	–
CNS(=O)(=O)Nc1nccc(Cc2cncc(Nc3ccc(Cl)cc3F)c2C)n1 [Example 53, 4-[[5-(4-chloro-2-fluoro-anilino)-4-methyl-3-pyridyl]methyl]-N-(methylsulfamoyl)pyrimidin-2-amine]	10 to 100	–	–	–
CNS(=O)(=O)Nc1nccc(Cc2cncc(Oc3cccc(Cl)c3F)c2)c1F [Example 54, 4-[[5-(3-chloro-2-fluoro-phenoxy)-3-pyridyl]methyl]-3-fluoro-N-(methylsulfamoyl)pyridin-2-amine]	> 1000	81.2	> 1000	viability at 1000 µM (IPC298 cells; Homo sapiens, IPC-298, 72 h, read-out: CTG % cell viability 1000 uM IPC298.2, IPC298 cells, 72 hours, 1000 uM, percent cells remaining after treatment): 70.1%
C#Cc1cnc(Nc2cncc(Cc3ccnc(NS(=O)(=O)NC)c3F)c2C)c(F)c1 [Example 60, 4-[[5-[(5-ethynyl-3-fluoro-2-pyridyl)amino]-4-methyl-3-pyridyl]methyl]-3-fluoro-N-(methylsulfamoyl)pyridin-2-amine]	100 to 500	–	< 10	–
CNS(=O)(=O)Nc1nccc(Cc2cncc(Nc3ncc(Cl)cc3F)c2C)c1F [Example 62, 4-[[5-[(5-chloro-3-fluoro-2-pyridyl)amino]-4-methyl-3-pyridyl]methyl]-3-fluoro-N-(methylsulfamoyl)pyridin-2-amine]	> 1000	46.4	10 to 100	–
CNS(=O)(=O)Nc1nccc(Cc2cncc(Oc3ccc(C(F)F)cc3F)c2C)c1F [Example 65, 4-[[5-[4-(difluoromethyl)-2-fluoro-phenoxy]-4-methyl-3-pyridyl]methyl]-3-fluoro-N-(methylsulfamoyl)pyridin-2-amine]	10 to 100	–	< 10	–
C=CCNc1cncc(Cc2ccnc(NS(=O)(=O)NC)c2F)c1C [Example 68, 4-[[5-(allylamino)-4-methyl-3-pyridyl]methyl]-3-fluoro-N-(methylsulfamoyl)pyridin-2-amine]	500 to 1000	–	> 1000	–
CNS(=O)(=O)Nc1nccc(Cc2cccc(Nc3ccc(Cl)cc3F)c2C)c1F [Example 70, 4-[[3-(4-chloro-2-fluoro-anilino)-2-methyl-phenyl]methyl]-3-fluoro-N-(methylsulfamoyl)pyridin-2-amine]	> 1000	50.2	10 to 100	–
CNS(=O)(=O)Nc1nccc(Cc2cncc(Oc3ccc(SC)cc3)c2C)c1F [Example 71, {[3-fluoro-4-({4-methyl-5-[4-(methylsulfanyl)phenoxy]pyridin-3-yl}methyl)pyridin-2-yl]sulfamoyl}(methyl)amine]	< 10	–	< 10	–
CNS(=O)(=O)Nc1nccc(Cc2cncc(Oc3ccc(S(C)(=O)=O)cc3)c2C)c1F [Example 72, [(3-fluoro-4-{[5-(4-methanesulfonylphenoxy)-4-methylpyridin-3-yl]methyl}pyridin-2-yl)sulfamoyl](methyl)amine]	500 to 1000	–	10 to 100	–

Continued, in another order:

IC50 (HCT116 cells; Homo sapiens, HCT-116, 72 h) [nM]	SMILES	viability at 1000 µM (HCT116 cells; Homo sapiens, HCT-116, 72 h) [%]	IC50 (IPC298 cells; Homo sapiens, IPC-298, 72 h) [nM]	also measured
> 1000	CNS(=O)(=O)Nc1nccc(Cc2cncc(-c3ccc(Cl)cc3F)c2C)c1F [Example 44, [(4-{[5-(4-chloro-2-fluorophenyl)-4-methylpyridin-3-yl]methyl}-3-fluoropyridin-2-yl)sulfamoyl](methyl)amine]	28	10 to 100	–
10 to 100	CNS(=O)(=O)Nc1nccc(Cc2cncc(Oc3ccc(Cl)cc3F)c2C)c1F [Example 49, [(4-{[5-(4-chloro-2-fluorophenoxy)-4-methylpyridin-3-yl]methyl}-3-fluoropyridin-2-yl)sulfamoyl](methyl)amine]	–	< 10	–
100 to 500	CNS(=O)(=O)Nc1nccc(Cc2cncc(Oc3ccc(C(F)(F)F)cc3F)c2C)c1F [Example 51, 3-fluoro-4-[[5-[2-fluoro-4-(trifluoromethyl)phenoxy]-4-methyl-3-pyridyl]methyl]-N-(methylsulfamoyl)pyridin-2-amine]	–	–	–
100 to 500	CNS(=O)(=O)Nc1nccc(Cc2cnnc(Nc3ccc(Cl)cc3F)c2C)c1F [Example 52, N-(4-chloro-2-fluoro-phenyl)-5-[[3-fluoro-2-(methylsulfamoylamino)-4-pyridyl]methyl]-4-methyl-pyridazin-3-amine]	–	< 10	–
> 1000	CNS(=O)(=O)Nc1nccc(Cc2cncc(Nc3ncccn3)c2C)c1F [Example 55, N-[5-[[3-fluoro-2-(methylsulfamoylamino)-4-pyridyl]methyl]-4-methyl-3-pyridyl]pyrimidin-2-amine]	80.9	–	–
100 to 500	CNS(=O)(=O)Nc1nccc(Cc2cncc(-c3cc(Cl)ccc3F)c2C)c1F [Example 56, [(4-{[5-(5-chloro-2-fluorophenyl)-4-methylpyridin-3-yl]methyl}-3-fluoropyridin-2-yl)sulfamoyl](methyl)amine]	–	< 10	–
> 1000	CNS(=O)(=O)Nc1nccc(Cc2cncc(-c3cccc(Cl)c3F)c2C)c1F [Example 57, [(4-{[5-(3-chloro-2-fluorophenyl)-4-methylpyridin-3-yl]methyl}-3-fluoropyridin-2-yl)sulfamoyl](methyl)amine]	56.8	10 to 100	CTG % cell viability 1000 uM HCT116.20 (HCT116 cells; HCT116 cells, 72 hours): 45.51%
< 10	CNS(=O)(=O)Nc1nccc(Cc2cncc(Nc3ccc(C(C)C)cc3F)c2C)c1F [Example 58, 3-fluoro-4-[[5-(2-fluoro-4-isopropyl-anilino)-4-methyl-3-pyridyl]methyl]-N-(methylsulfamoyl)pyridin-2-amine]	–	< 10	–
100 to 500	CNS(=O)(=O)Nc1nccc(Cc2cncc(-n3ccc4cc(Cl)ccc43)c2)c1F [Example 59, [(4-{[5-(5-chloroindol-1-yl)pyridin-3-yl]methyl}-3-fluoropyridin-2-yl)sulfamoyl](methyl)amine]	–	10 to 100	–
> 1000	CNS(=O)(=O)Nc1nccc(Cc2cncc(O[C@H]3CC[C@H](C)CC3)c2C)c1F [Example 63, 3-fluoro-4-[[4-methyl-5-(4-methylcyclohexoxy)-3-pyridyl]methyl]-N-(methylsulfamoyl)pyridin-2-amine]	71.5	> 1000	viability at 100 µM (IPC298 cells; [1]): 62.4%
10 to 100	CNS(=O)(=O)Nc1nccc(Cc2cncc(Nc3ccc(OC(F)F)cn3)c2C)c1F [Example 66, 4-[[5-[[5-(difluoromethoxy)-2-pyridyl]amino]-4-methyl-3-pyridyl]methyl]-3-fluoro-N-(methylsulfamoyl)pyridin-2-amine]	–	< 10	–
10 to 100	CNS(=O)(=O)Nc1nccc(Cc2cncc(Nc3ccc(Cl)cc3F)c2Cl)c1F [Example 67, 4-chloro-N-(4-chloro-2-fluorophenyl)-5-({3-fluoro-2-[(methylsulfamoyl)amino]pyridin-4-yl}methyl)pyridin-3-amine]	–	< 10	–
> 1000	CNS(=O)(=O)Nc1nccc(Cc2cncc(Nc3ccc(OC(F)(F)F)cn3)c2C)c1F [Example 69, 3-fluoro-N-(methylsulfamoyl)-4-[[4-methyl-5-[[5-(trifluoromethoxy)-2-pyridyl]amino]-3-pyridyl]methyl]pyridin-2-amine]	60.4	10 to 100	–

Source: patent publication US20250288571A1 (Nested Therapeutics, Inc., priority 2024, published 2025)
